# Literature values, collected in patent US20110046156A1, “TREATMENT OF HEARING AND BALANCE IMPAIRMENTS WITH REDOX-ACTIVE THERAPEUTICS” (priority 2009, published 2011).
smiles,measurement,setting,value
[H]/N=C(/N)N[C@H]1[C@H](O)[C@@H](O)[C@H](O[C@@H]2O[C@@H](C)[C@](O)(C=O)[C@H]2O[C@@H]2O[C@@H](CO)[C@H](O)[C@@H](O)[C@@H]2NC)[C@@H](N/C(N)=N\[H])[C@@H]1O [streptomycin],incidence of vestibular impairment,1 gram per day,25%
same,patients displaying some vestibular impairment,2 grams daily for 60 to 120 days,~75%
